According to patent US8084210B2, “Methods for the assessment of drug response” (Theranostics Laboratory, priority 2008, dated 2011):
“And” between values parts separate entries of the source, which are not always exact repeats. Identical values can stand only once. Like-named read-outs stand apart in the source and are kept apart here. One block for each molecule: values may come before it.

Tests used:
[1] = in vivo; cited from earlier work
P2Y12 receptor = molecular target: T1, P2Y12 receptor (Homo sapiens, UniProt Q9H244); experiment: Platelet function by VerifyNow P2Y12 analyser in elective PCI patients given clopidogrel (PRINC trial); assay type: in vivo; conditions: for inhibition at 75 mg / inhibition at 150 mg: human
T1 construct: light transmittance through whole blood, to measure platelet agglutination; from tissue; host or cells: Platelets in citrated whole blood (arterial or venous) of patients
T1 sequence (Q9H244 whole entry): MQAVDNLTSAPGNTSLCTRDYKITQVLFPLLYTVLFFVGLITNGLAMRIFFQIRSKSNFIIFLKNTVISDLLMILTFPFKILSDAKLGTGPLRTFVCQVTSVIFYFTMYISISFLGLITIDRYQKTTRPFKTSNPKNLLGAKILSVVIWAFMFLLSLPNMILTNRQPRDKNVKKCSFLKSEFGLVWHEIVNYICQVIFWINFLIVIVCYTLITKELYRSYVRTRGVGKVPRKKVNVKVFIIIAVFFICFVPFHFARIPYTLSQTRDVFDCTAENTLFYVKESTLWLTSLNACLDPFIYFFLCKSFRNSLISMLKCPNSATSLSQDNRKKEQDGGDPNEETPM
Description: The study protocol was approved by the Northern Regional Ethics Committee of New Zealand. Eligible patients were defined as all-corners for elective percutaneous coronary intervention who were on aspirin and naëve to clopidogrel. […] Patients were randomised into equal groups using a computerised random number generator. Block randomisation was not used, explaining the unbalanced grouping to treatment allocations. Clopidogrel was broken in half and repackaged into gelatine capsules packed with lactose powder to match placebo. Investigators and subjects were blinded to treatment allocation. A target of 120 patients was predefined for completion of the study. […] At discharge patients were randomized to receive either 75 mg or 150 mg once daily for one week and regular 75 mg once daily dosing thereafter. Adherence to the treatment regimen was tested by a phone interview and pill count. Arterial blood was sampled through 6Fr femoral sheaths and transferred immediately to 3.2% citrate 2 ml vacutainer tubes (Cat. #454321 Greiner Vacuette®, Greiner, Kremsmuenster, Austria), using a 20 G needle and syringe. After sheath removal blood was drawn by venepucture directly into vacutainer tubes. After collection the tubes were inverted four times for adequate mixing of the anticoagulant and left for ten minutes at 24 degrees before testing. Platelet function was tested at baseline, two, four and seven hours from first clopidogrel loading and at seven days. […] This device uses fibrinogen coated microbeads, an agonist of adenosine diphosphate (ADP) and light transmittance through whole blood, to measure platelet agglutination. The output of the device is measured as the proprietary platelet response unit (PRU). […] Percent inhibition is reported as the percentage change from baseline using a BASE unit. This BASE unit is derived from a second channel run parallel with the ADP channel using the agonist iso-TRAP (Thrombin Receptor Activating Peptide). From this point “percentage inhibition” will reflect this formula: % Inhibition=[(BASE−PRU)×100]/BASE. […] (2004) and Lev E I et al (2006)). The principal time point of interest for comparisons of genotype to drug response was specified as two hours after the first loading dose as at this point all patients had received only 600 mg. […] The effect of different dosages on response in genotype groups was assessed at four hours.

[2] = cited from earlier work
[3] = system: ADP-induced platelet aggregation or activation; conditions: low inhibition of ADP-induced platelet aggregation or activation; cited from earlier work

Structure (SMILES): CC(=O)Oc1cc2c(s1)CCN(C(C(=O)C1CC1)c1ccccc1F)C2 (stereo not shown) [prasugrel, 5-[2-cyclopropyl-1-(2-fluorophenyl)-2-oxoethyl]-4,5,6,7-tetrahydrothieno[3,2-c]pyridin-2-yl acetate]
Elimination half life [1]: 3.7 h

Platelet inhibition (P2Y12 receptor; 75 mg maintenance dose, CYP2C19*2 or *4 carriers): 24+/−18%
Non-responders (seven hour percent inhibition <10%) (P2Y12 receptor; 600 mg (low dose) group, six out of 26): 26%
Platelet inhibition (P2Y12 receptor; 600 mg loading dose, CYP2C19*2 or *4 carriers): 16+/−13%
Non-responders (seven hour percent inhibition <10%) (P2Y12 receptor; 1,200 mg (high dose) group, two out of 37): 5%
Platelet inhibition (P2Y12 receptor; 2 hours after 600 mg, CYP2C19*1*1 carriers): 26+/−20%
Platelet inhibition (P2Y12 receptor; 2 hours after 600 mg, CYP2C19*2, *4 and *17 carriers): 13+/−20%
Platelet inhibition (P2Y12 receptor; four hours, 600 mg loading dose): 23.7%
Platelet inhibition (P2Y12 receptor; four hours, 600 mg loading dose, CYP2C19*1*1 carriers): 35+/−27%
Platelet inhibition (P2Y12 receptor; four hours, 1200 mg loading dose, CYP2C19*1*1 carriers): 51+/−28%
Platelet inhibition (P2Y12 receptor; four hours, 1,200 mg split loading dose): 42%
Platelet inhibition (P2Y12 receptor; higher (150 mg) maintenance dose, CYP2C19*2 or *4 carriers): 49+/−31%
Platelet inhibition (P2Y12 receptor; higher (1200 mg) loading dose, CYP2C19*2 or *4 carriers): 36+/−24%
inhibition at 75 mg (P2Y12 receptor; 75 mg daily maintenance dose, CYP2C19*1*1 carriers): 40%
inhibition at 150 mg (P2Y12 receptor; 150 mg daily maintenance dose, CYP2C19*1*1 carriers): 51%
inhibition at 75 mg (P2Y12 receptor; one week, 75 mg once daily): 28.8%
inhibition at 150 mg (P2Y12 receptor; one week, 150 mg once daily): 49.8%
Platelet inhibition (P2Y12 receptor; seven days, 600 mg loading dose group): 35.7%
Platelet inhibition (P2Y12 receptor; seven days, 1,200 mg split loading dose group): 44.5%
Platelet inhibition (P2Y12 receptor; seven hours, 600 mg loading dose): 28.7%
Platelet inhibition (P2Y12 receptor; seven hours, 1,200 mg split loading dose): 48.9%
Platelet inhibition (P2Y12 receptor; seven hours, two individuals carrying both 2C19 and 2C9 poor responder genotypes): 8% and 11%
Platelet inhibition (P2Y12 receptor; two hours after 600 mg, two P2Y12 H2 haplotype CC homozygotes): < 2%
Structure (SMILES): COC(=O)[C@H](c1ccccc1Cl)N1CCc2sccc2C1 [clopidogrel, (+)-(S)-methyl 2-(2-chlorophenyl)-2-(6,7-dihydrothieno[3,2-c]pyridin-5(4H)-yl)acetate]
Bioavailability ([2]; in vivo): approximately 50%
Elimination half life ([2]; in vivo): 7.2 to 7.6 h
Time to peak effect after dosing ([2]; in vivo): six
Share of a dose converted by esterases to inactive metabolites ([2]; inactivation pathway): ~85%
Patients classified as poor responders or resistant [3]: 20-40%
